This passage reports AC50 and EC50 results from ChEMBL document CHEMBL1201862, “PubChem BioAssay data set” (2004).

Data set [1] concerns the target Cytochrome P450 2C19 (Homo sapiens, UniProt P33261). The experiment in a line: Cytochrome panel assay with activity outcomes. Panel member name: p450-cyp2c19 Compounds with AC50 equal or less than 10 uM are considered active. It is filed as functional.
Data set [2] concerns the target T1, Cytochrome P450 1A2 (Homo sapiens, UniProt P05177).
T1 sequence (P05177 whole entry): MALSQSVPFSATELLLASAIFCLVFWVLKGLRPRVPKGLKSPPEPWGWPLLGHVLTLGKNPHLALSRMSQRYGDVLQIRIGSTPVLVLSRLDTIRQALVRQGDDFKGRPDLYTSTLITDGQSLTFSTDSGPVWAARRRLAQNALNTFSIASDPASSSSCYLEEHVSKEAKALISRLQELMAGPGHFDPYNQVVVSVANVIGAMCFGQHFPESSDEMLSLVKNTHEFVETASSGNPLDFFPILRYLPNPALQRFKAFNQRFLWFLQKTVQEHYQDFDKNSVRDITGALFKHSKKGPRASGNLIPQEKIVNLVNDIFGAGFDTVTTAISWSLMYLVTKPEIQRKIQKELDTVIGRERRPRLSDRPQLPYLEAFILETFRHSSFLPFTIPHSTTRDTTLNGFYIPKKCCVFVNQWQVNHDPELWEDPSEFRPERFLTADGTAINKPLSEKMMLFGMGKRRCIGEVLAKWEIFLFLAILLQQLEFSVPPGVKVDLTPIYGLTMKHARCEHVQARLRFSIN

Data set [3] in a line: Luminescence Cell-Based Dose Response HTS to Identify Inhibitors of 5'UTR Stem-Loop Driven Prion Protein mRNA Translation in H4 Neuroglioblastoma Cells. [Related pubchem assays: 1827 (Project Summary), 1813 (Primary HTS)]. The class given is functional.
A short description of data set [4]: alpha-synuclein stem-loop luciferase translation blockers – H4 neuroglioma cells, luminescence, confirmation (AID 1988). It is filed as functional, cell-based.
A short description of data set [5]: luciferase reporter signal suppression in cells – H4 neuroglioma cells, luminescence, dose response (AID 1990). The class given is functional, cell-based.
Data set [6] in a line: NIH3T3 cell viability loss – ATP luminescence, mouse fibroblasts, counter-screen, dose response (AID 2010).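 Note: cells exposed to compound for about 90 hours before reading.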 The class given is functional, cell-based. In general terms: The purpose of a counterscreen is to sort out artefacts and off-target activity.
A short description of data set [7]: Trypanosoma cruzi growth suppression in host cells – NIH3T3 host cells, beta-gal luminescence, confirmation (AID 2044).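 Note: intracellular parasites grown in NIH/3T3 mouse fibroblasts as host cells; luminescent beta-galactosidase reporter signal from transgenic T. cruzi replicating inside host cells; inhibitors lower the luminescence signal.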 The class given is functional, cell-based.
Data set [8] concerns Streptococcus. The experiment in a line: GAS UMAA2166 growth inhibition – luminescence, BacTiterGlo, counter-screen for streptokinase expression inhibitor project, dose response (AID 1915).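 Note: potency for reduction of bacterial viability or growth.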 The class given is functional, organism-based.
For data set [9], the system named is Streptococcus sp. 'group A'. The experiment in a line: Streptococcus pyogenes SK(-)GAS viability under kanamycin – luminescence, BacTiterGlo, confirmation, counter-screen for streptokinase expression inhibitor project, dose response (AID 1900). The class given is functional, organism-based.
Data set [10] concerns the target Cytochrome P450 2D6 (Homo sapiens, UniProt P10635).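 Note: CYP2D6 member of a cytochrome P450 panel assay.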

Calls of active or inactive are those of the source.

Chain of Cytochrome P450 2D6 (P10635 whole entry): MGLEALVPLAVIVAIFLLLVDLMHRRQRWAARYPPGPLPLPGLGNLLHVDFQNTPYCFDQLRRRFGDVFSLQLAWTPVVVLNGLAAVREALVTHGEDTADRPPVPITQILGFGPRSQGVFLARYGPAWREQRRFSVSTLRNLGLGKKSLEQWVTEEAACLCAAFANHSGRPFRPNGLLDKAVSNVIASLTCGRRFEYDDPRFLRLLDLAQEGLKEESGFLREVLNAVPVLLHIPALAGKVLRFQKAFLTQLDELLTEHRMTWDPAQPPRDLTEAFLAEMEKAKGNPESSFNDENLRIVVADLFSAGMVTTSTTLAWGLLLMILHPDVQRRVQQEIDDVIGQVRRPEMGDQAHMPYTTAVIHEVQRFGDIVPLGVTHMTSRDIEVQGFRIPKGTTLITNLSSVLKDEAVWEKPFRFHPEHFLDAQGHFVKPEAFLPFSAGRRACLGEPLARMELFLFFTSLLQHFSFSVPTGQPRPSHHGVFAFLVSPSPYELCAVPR
Chain of Cytochrome P450 2C19 (P33261 whole entry): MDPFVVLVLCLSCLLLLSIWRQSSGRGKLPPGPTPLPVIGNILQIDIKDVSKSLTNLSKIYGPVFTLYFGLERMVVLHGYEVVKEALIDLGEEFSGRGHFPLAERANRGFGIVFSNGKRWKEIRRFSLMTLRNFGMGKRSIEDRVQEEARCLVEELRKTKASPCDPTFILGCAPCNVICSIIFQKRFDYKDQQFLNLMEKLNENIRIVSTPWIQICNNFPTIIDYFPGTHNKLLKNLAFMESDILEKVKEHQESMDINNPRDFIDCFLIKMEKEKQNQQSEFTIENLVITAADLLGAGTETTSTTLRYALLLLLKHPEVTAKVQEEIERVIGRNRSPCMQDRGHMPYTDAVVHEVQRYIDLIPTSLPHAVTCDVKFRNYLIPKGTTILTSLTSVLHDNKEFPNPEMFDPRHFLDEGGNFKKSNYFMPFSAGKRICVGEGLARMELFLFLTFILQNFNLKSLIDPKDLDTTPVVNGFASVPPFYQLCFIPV

Usually AC50 stands for the concentration giving half of the maximal activity seen. Take `COc1ccc(C)cc1NC(=O)CSc1nnc(-c2ccc(OC)c(OC)c2)n1N`: the AC50 in data set [1] (read-out: AC50) was 28.2 µM (inconclusive); in data set [2], 11.2 µM (inconclusive). The EC50 is the concentration giving half of the maximal effect. Regarding `COc1cc(O)nc(SCc2c(F)c(F)c(F)c(F)c2F)n1`, the concentration for a half-maximal effect (EC50) was 13.9 µM (active) in data set [3], 66.4 µM (active) in data set [4] and > 120 µM (not active) in [5]. `Cn1c(=O)c2nc(CSCc3ccccc3)[nH]c2n(C)c1=O`: the AC50 result in data set [1] is “inconclusive”. As to `Cc1nc(SCC(=O)Nc2c(C)nn(C)c2C)c2cnn(-c3ccccc3)c2n1`, in data set [1] (read-out: AC50), the AC50 is 28.2 µM (inconclusive). As for `COc1ccc(-c2nnc(CSc3nnc(-c4ccncc4)n3C3CCCCC3)o2)cc1OC`, the values for the EC50 in data set [3], in data set [4] and in data set [5] were > 120 µM (not active), 39.4 µM (active) and 16.3 µM (active), respectively. For the compound `Cc1sc2ncn(CC(=O)NCCCC(=O)N3CCN(c4ncccn4)CC3)c(=O)c2c1C`, the AC50 in data set [1] (read-out: AC50) is 25.1 µM (inconclusive).

For `CC(C)n1c2ccccc2c2cc([N+](=O)[O-])ccc21`, the EC50 is > 120 µM (not active) in data set [3], 34.3 µM (active) in data set [4] and 14.8 µM (active) in [5]. `COc1ccc(CNc2ncnc3ccc(-c4cccnc4)cc23)c(OC)c1`: the AC50 in data set [1] (read-out: AC50) is 31.6 µM (inconclusive).

For the compound `CC(C)CN(C(=O)COC(=O)c1c(Cl)ccc(Cl)c1Cl)C1CCS(=O)(=O)C1` (stereo not drawn), the EC50 in [3], in data set [4] and in data set [5] was > 120 µM (not active) each time. For the compound `O=C(CSc1ncnc2c1nnn2Cc1ccc(F)cc1)NC1CCCCC1`, the values for the EC50 in data set [6] and in data set [7] were > 60 µM (not active) and 4.08 µM (active), respectively. Regarding `O=C(NNC(=S)NC(=O)c1cccc([N+](=O)[O-])c1)c1ccc(Br)cc1`, the EC50 in data set [8] is 6.56 µM (active); in [9], 1.14 µM (active). Take `N=c1c2c(-c3ccccc3)c(-c3ccccc3)n(Cc3ccco3)c2ncn1CCCO`: the results for the EC50 in [6] and in [7] were 11.3 µM (active) and 1.33 µM (active), respectively. On to `CC(C)c1cc(CN(C)C)c(O)c(C(C)(C)C)c1`, for which the AC50 in data set [10] is 6.31 µM (inconclusive). Consider `Cc1cc(C)c(S(=O)(=O)Nc2ccccc2C(F)(F)F)c(C)c1`, for which the AC50 in data set [2] is 31.6 µM (inconclusive).

For `CN(Cc1ccco1)c1ccnc(-c2ccccc2C(F)(F)F)n1`, the AC50 in data set [10] is 25.1 µM (inconclusive). Consider `N#CC(C#N)=CNCCN1CCN(C=C(C#N)C#N)CC1`, for which the half-maximal activity concentration (AC50) result in data set [1] is reported as “inconclusive”. As to `O=C(c1c[nH]c(C(=O)N2CCN(c3ccccc3F)CC2)c1)c1cccc(Cl)c1Cl`, the EC50 in data set [6] was 2.1 µM (active); in [7], 2.69 µM (active).

With `COc1ccc(NC(=O)CC2C(=O)N(CCc3ccccc3)C(=S)N2Cc2cccnc2)cc1` (stereo not drawn), the values for the EC50 in data set [6] and in [7] were > 60 µM (inconclusive) and 2.03 µM (active), respectively.

Turning to `O=C(Nc1ccc([N+](=O)[O-])cc1)C(Cc1ccccc1)N1C(=O)c2cccc3cccc(c23)C1=O` (stereo not drawn), the EC50 in data set [3], in [4] and in data set [5] was > 120 µM (not active) each time. Turning to `Cc1ccccc1Cn1cnc2c(cnn2C(C)(C)C)c1=O`, in data set [10], the AC50 is 35.5 µM (inconclusive).

On to `CCOC(=O)c1[nH]c(Cc2[nH]c(C(=O)OCC)c(C)c2CCC(=O)OC)c(CCC(=O)OC)c1C`, for which the EC50 in data set [3] is 21.2 µM (active); in [4], 12.1 µM (active); in data set [5], > 120 µM (not active). Take `CCOc1ccccc1NC(=O)c1cc(-c2ccncc2)nc2c(Cl)cccc12`: the EC50 is 21.2 µM (active) in [6] and 1.97 µM (active) in data set [7].

On to `O=C(CN1C2=NCCCN2c2ccccc21)c1ccc([N+](=O)[O-])cc1`, for which the values for the EC50 in data set [6] and in data set [7] were > 60 µM (not active) and 0.436 µM (active), respectively. For `CN(C)c1ccc(-c2ccc3ncnc(N(C)Cc4ccco4)c3c2)cc1`, the AC50 in data set [10] is 25.1 µM (inconclusive). As to `CCC(=O)Nc1nc2ccc([N+](=O)[O-])cc2s1`, the EC50 in [6] is > 60 µM (not active); in [7], 0.241 µM (active). Take `CCCCSc1nnc(-c2ccc(C)cc2)n1C`: the AC50 in data set [2] was 28.2 µM (inconclusive). On to `C[C@H](N)c1cccc(Cl)c1Cl`, for which the AC50 in data set [10] is 31.6 µM (inconclusive). As to `Oc1c[n+](CCCC[n+]2cc(O)on2)no1`, the AC50 entry in data set [1] is given as “inconclusive”. `O=C(NC1CCCCCC1)c1cccs1`: the figures for the AC50 in data set [1] (read-out: AC50) and in [10] were 3.98 µM (inconclusive) and 12.6 µM (inconclusive), respectively. With `O=C(NCC1CCCO1)/C(=C\c1ccco1)NC(=O)c1ccccc1` (stereo not drawn), the AC50 in [2] was 14.1 µM (inconclusive). `CSc1cccc(NC(=S)N(Cc2ccc(C)cc2)Cc2ccccn2)c1`: the figures for the EC50 in data set [6] and in data set [7] were > 60 µM (not active) and 0.483 µM (active), respectively. On the same counts, the results for `COc1ccccc1C(=O)C1CCCN(Cc2ccc(Oc3ncccn3)cc2)C1` (stereo not drawn) are > 60 µM (not active) and 0.178 µM (active). As to `Cc1ccc(-n2ncc3c2ncn2nc(-c4ccco4)nc32)c(C)c1`, the AC50 in data set [1] (read-out: AC50) is 17.8 µM (inconclusive). Take `CCOC(=O)c1c(NC(=O)CN2CCCCC2)sc(CN(C)C)c1-c1ccccc1`: the EC50 was > 30 µM (not active) in data set [6] and 1.11 µM (active) in [7]. Consider `Cc1cc(C)c[n+](CC(=O)c2cc3ccccc3oc2=O)c1`, for which the AC50 is 22.4 µM (inconclusive) in data set [2] and 11.2 µM (inconclusive) in data set [10].

Take `OCC1(CCCc2ccccc2)CCN(Cc2cnc(N3CCOCC3)s2)CC1`: the EC50 in [6] is > 60 µM (not active); in data set [7], 1.2 µM (active). With `CN(C)C(=O)c1ccc(-c2nc(N(C)Cc3ccco3)c3ccccc3n2)cc1`, the AC50 in data set [1] (read-out: AC50) is 31.6 µM (inconclusive); in [10], 39.8 µM (inconclusive). As for `CO[C@@H]1COC(=O)[C@H]2CCCN2C(=O)[C@@H](C)COC(=O)CCC[C@H]1C`, in [1], the AC50 result is “inconclusive”. With `Cc1cc(C)c(S(=O)(=O)c2ccccc2C)c(Cl)n1`, the EC50 in data set [6] is > 60 µM (not active); in data set [7], 2.05 µM (active). On to `O=c1cnc2cnc(OCc3ccccc3)nc2n1Cc1ccc(F)cc1`, for which the AC50 is 25.1 µM (inconclusive) in data set [1] (read-out: AC50) and 39.8 µM (inconclusive) in [10]. As for `CN(C(=O)CSc1nc(O)c(C#N)c(-c2ccc(C(C)(C)C)cc2)n1)C1CCCCC1`, the EC50 in [8] was 20.3 µM (active).

For `COc1cccc(Cn2c(=O)c(C)nc3cnc(OCc4ccccc4)nc32)c1`, the AC50 in [10] is 20 µM (inconclusive).

In the case of `O=C(Nc1nc2c(F)cc(F)cc2s1)C1CC1`, the EC50 in [6] is > 60 µM (not active); in data set [7], 0.305 µM (active). As for `CCCCN(C)CCCNC(=O)c1ccc(N2CCCC2=O)cc1`, the AC50 in data set [2] is 0.126 µM (inconclusive). Consider `Cc1oc(-c2ccccc2F)nc1CS(=O)(=O)CC(=O)NCCCN(C)C1CCCCC1`, for which the AC50 in data set [10] was 15.8 µM (inconclusive). Take `O=C(NC(Cc1c[nH]c2ccccc12)c1nnc2n1CCCCC2)c1ccccc1` (stereo not drawn): the AC50 in data set [1] (read-out: AC50) was 17.8 µM (inconclusive). In the case of `CCc1nnc(NC(=O)CCC(=O)NCc2ccccc2OC)s1`, the half-maximal activity concentration (AC50) in data set [10] is 17.8 µM (inconclusive). `OC[C@@H]1O[C@H](n2cnc3c(/C=C(\O)c4ccccc4)ncnc32)[C@H](O)[C@@H]1O`: the AC50 in data set [2] is 0.501 µM (inconclusive). Still for that read-out and setting: the result for `O=C(Nc1ccccc1)N(Cc1ccccc1)CC(O)C(F)(F)F` (stereo not drawn) reads 17.8 µM (inconclusive).

With `COc1ccc(CC(=O)NCCN2CCCC2)cc1`, the AC50 in data set [10] was 28.2 µM (inconclusive).

Consider `CCN1CCN(c2nc(-c3ccncc3)nc3ccccc23)CC1`, for which the EC50 in data set [6] was > 60 µM (not active); in data set [7] it was 1.23 µM (active). On the same counts, the results for `O=C(N/N=C/c1cc2c(cc1Br)OCO2)c1c[nH]c2ccccc12` are > 60 µM (inconclusive) and 2.52 µM (active). `COc1ccccc1NS(=O)(=O)c1cccc(C(=O)N/N=C/c2cn(-c3ccccc3)nc2-c2ccccc2)c1`: the concentration giving a half-maximal response (EC50) in data set [3], in data set [4] and in data set [5] was > 120 µM (not active) each time. On to `O=C(O)COc1ccccc1/C=N/NC(=O)c1cc2ccccc2cc1O`, for which the EC50 in data set [3] was > 120 µM (not active); in [4], 18.7 µM (active); in [5] it was > 120 µM (not active).

Consider `NC(=O)c1cccc(N)c1` [3-AMINOBENZAMIDE], for which the values for the AC50 in [2] and in data set [10] were 39.8 µM (inconclusive) and 20 µM (inconclusive), respectively.
